Measured values from patent publication US20250230226A1, “PLXDC1/PLXDC2 ACTIVATORS AND THEIR USE IN THE TREATMENT OF BLOOD VESSEL DISORDERS” (THE REGENTS OF THE UNIVERSITY OF CALIFORNIA, priority 2019, published 2025).

Test system: LL/2 lung cancer tumor endothelial cells
Experiment: Lung LL2 ex vivo model of tumor angiogenesis
Format: cell-based, mouse
Settings: for 48 hrs (morphology observations): LL/2 tumor endothelial cells; for Cell death: drug treatment for two days, ratio of red area to total endothelial cell area; for cytotoxicity at 40 µM / cytotoxicity at 20 µM: Mus musculus, Endothelial cell, 48 h, read-out: Cell death
Procedure: An ex vivo tumor angiogenesis model was developed to test the efficacy of anti-cancer candidate agents. The following protocol describes the Ex Vivo Tumor Angiogenesis Model.
• 1. The day before the experiment, all necessary tools were sprayed with 70% ethanol and sterilized under UV light overnight, including blade, dissecting and micro-dissecting scissors and […]. 24-well dishes were placed at 4° C. to pre-chill plates and Matrigel was thawed, 24 hours before tumor dissection. • 2. 70% ethanol was sprayed on working bench. Two sterile petri dishes were prepared with 10 ml sterile PBS. The following steps 3 and 4 are necessary for mouse tumor models. For fresh human tumor, steps 3 and 4 are skipped. • 3. The tumor-bearing mice were euthanized. 70% ethanol was sprayed on the mouse and the tumor was removed using sterilized dissecting tools (avoid the fur). The tumor was rinsed in petri dish with sterile PBS to remove ethanol and fur. The tumor was transferred to a new petri dish with PBS for dissection. The dish is placed on ice. • 4. Pre-chilled sterile pipet tips were used to seed regular Matrigel in 24 well plates on ice. Matrigel (30 μl) was dropped in the middle of each well without touching the edge of the well (avoid introducing bubbles if possible). • 5. The tumor was cut in halves using the sterile blade. Healthy tumor tissue that is not necrotic and is within the tumor capsule was identified and isolated. The healthy tumor tissue was cut into small pieces. For instance, a suitable size for the tumor tissue is 0.5 mm (H)×0.5 mm (L)×0.3 mm (D) with a total volume of 0.075 mm^3. • 6. Each tumor piece was gently transferred and embedded in the Matrigel drop in the 24-well plate. The embedded piece was placed in the bottom and middle of each Matrigel drop. The plate was kept on ice all the time. • 7. After seeding the tumor pieces, plates were incubated in a 37° C. cell culture incubator without medium for 10 minutes in order for the Matrigel to solidify. • 8. Endothelial Growth Medium (0.5 ml) was added to each well and incubated at 37° C. with 5% CO2. Treatment was not added until the new endothelial cells was grown out of the tumor or were larger than 3 mm in diameter. This usually takes 4 days for the LL2 Lewis lung cancer model and 7 days for the CT26 colon cancer model. For human tumor models, the growth time is typically 2-3 weeks, depending on the tumor type. Media was changed every 4 days during prolonged culture. Typically, when the tumor tissue grows to 2 mm in diameter, it was good for drug testing. A size of about 3 mm in diameter can make visualization easier. • 9. When the assay was ready to be analyzed for cell death (e.g., 48 hours after drug addition), the dye mixture was prepared by mixing 6 μl of green dye to stain live cells (5 mg/ml Fluorescein diacetate or FDA in DMSO) with 30 μl of red dye (2.5 mg/ml Propidium iodide or PI in PBS) to stain dead cells in an Eppendorf tube. The FDA dye needs to be stored frozen in a −20° C. freezer because it has a labile ester bond. • 10. 1 μl of the dye mixture was added to each well of the 24-well dish. It is usually preferred to do one 24-well dish at a time given the amount of time needed to take pictures (the green dye is not as stable in the cells in the long term). • 11. The dish was gently rocked a few times to mix the dye with the media in the wells and incubate the dish at 37° C. for 10 min (too long incubation can make the green signal too intense). • 12. Each well was washed with 0.5 ml of sterile PBS and then 0.5 ml of phenol red free SFM was added to each well. Alternatively 0.5 ml of regular Endothelial Cell Growth Media can be added to each well if this well needs to be continuously maintained after the experiment. • 13. An inverted microscope using the 2× objective lens was used to observe morphological changes in the experimental wells. • 14. […]

| Compound | 48 hrs (morphology observations) (40 μm) | Cell death (40 μm) | Cell death (20 μm) | other results |
| --- | --- | --- | --- | --- |
| COc1ccc(C2CCN(c3c(S(=O)(=O)c4ccc(OC)cc4)cnc4cc(OC)c(OC)cc34)CC2)cc1 [Compound 311] | 0 | 30% | – | – |
| CCOC(=O)c1ccc2ncc(S(=O)(=O)c3ccc(OC)cc3)c(N3CCC(N4CCCC(O)C4)CC3)c2c1 (stereo not drawn) [Compound 174] | 0 | 30% | – | – |
| CC(C)CCCC(C)CCOc1ccc(S(=O)(=O)c2cnc3ccc([S+](C)[O-])cc3c2N2CCC(N3CCC(N4CCCCC4)CC3)CC2)cc1 (stereo not drawn) [Compound 289] | – | – | 20% | – |
| CCCCCCCOc1ccc(S(=O)(=O)c2cnc3ccc(SC)cc3c2N2CCC(N3CCN(CCO)CC3)CC2)cc1 [Compound 250] | – | – | 90% | 48 hrs (morphology observations) (20 μm): *** (more than 50% but less than 100% of endothelial cells vesicularize in cell shape) |
| CCCCOc1ccc(S(=O)(=O)c2cnc3ccc(S(C)(=O)=O)cc3c2N2CCC(N3CCCCC3)CC2)cc1 [Compound 169] | – | – | 40% | 48 hrs (morphology observations) (20 μm): 0 |
| CCCCOc1ccc(S(=O)(=O)c2cnc3ccc(C(=O)OCC)cc3c2N2CCC(N3CCCC(O)C3)CC2)cc1 (stereo not drawn) [Compound 177] | **** (100% of endothelial cells vesicularize in cell shape and look flattened in morphology (indicating disintegration of the cell body)) | 100% | – | – |
| CCCCCCCCCCCCOc1ccc(S(=O)(=O)c2cnc3ccc([S+](C)[O-])cc3c2N2CCC(N3CCC(N4CCC(O)CC4)CC3)CC2)cc1 (stereo not drawn) [Compound 374] | – | – | 20% | – |
| COc1ccc(S(=O)(=O)c2cnc3ccc(C(=O)N(C)C)cc3c2N2CCC(N3CCCCC3)CC2)cc1 [Compound 331] | 0 | 10% | – | – |
| CCCCOc1ccc(S(=O)(=O)c2cnc3ccc(C(=O)OCC)cc3c2N2CCC(N3CCC(CO)CC3)CC2)cc1 [Compound 178] | **** (100% of endothelial cells vesicularize in cell shape and look flattened in morphology (indicating disintegration of the cell body)) | 100% | – | – |
| CCc1ccc(S(=O)(=O)c2cnc3ccc(OC)cc3c2NN2CCN(C)CC2)cc1 [Compound 83] | 0 | – | – | cytotoxicity at 40 µM: 20% |
| CCCCCCCOc1ccc(S(=O)(=O)c2cnc3ccc([S+](C)[O-])cc3c2N2CCN(CCN3CCCC3)CC2)cc1 (stereo not drawn) [Compound 276] | – | – | 100% | 48 hrs (morphology observations) (20 μm): *** (more than 50% but less than 100% of endothelial cells vesicularize in cell shape) |
| CCCCCCCCCCCCCCOc1ccc(S(=O)(=O)c2cnc3ccc([S+](C)[O-])cc3c2N2CCC(N3CCC(N4CCC(O)CC4)CC3)CC2)cc1F (stereo not drawn) [Compound 373] | – | – | 20% | 48 hrs (morphology observations) (20 μm): * (50% or less of cells vesicularize in cell shape) |
| CCCCCCCOc1ccc(S(=O)(=O)c2cnc3ccc(SC)cc3c2N2CCN(CC3CCN(Cc4ccccc4)CC3)CC2)cc1 [Compound 275] | – | – | 5% | 48 hrs (morphology observations) (20 μm): 0 |
| CCCCCCCCCCOc1ccc(S(=O)(=O)c2cnc3ccc([S+](C)[O-])cc3c2N2CCC(N3CCC(N4CCOCC4)CC3)CC2)cc1 (stereo not drawn) [Compound 286] | – | – | – | Cell death, read at 24 hrs (20 μm): 0%; Endothelial cell morphology score at 24 hrs (20 μm): 0 |
| CNC(=O)c1ccc(C2CCN(c3c(S(=O)(=O)c4ccc(OC)cc4)cnc4cc(OC)c(OC)cc34)CC2)cc1 [Compound 310] | 0 | 10% | – | – |
| COc1ccc(S(=O)(=O)c2cnc3cc(OC)c(OC)cc3c2N2CCC(O)(c3ccccc3)CC2)cc1 [Compound 308] | 0 | 20% | – | – |
| CCCCCCCCCCCCCCOc1ccc(S(=O)(=O)c2cnc3ccc([S+](C)[O-])cc3c2N2CCC(N3CCC(N4CCC(O)CC4)CC3)CC2)cc1 (stereo not drawn) [Compound 375] | – | – | 50% | 48 hrs (morphology observations) (20 μm): * (50% or less of cells vesicularize in cell shape) |
| CCN(CC)CCC(C)Nc1c(S(=O)(=O)c2ccc(OC)cc2)cnc2cc(OC)c(OC)cc12 (stereo not drawn) [Compound 300] | 0 | 20% | – | – |

| Compound | 48 hrs (morphology observations) (40 μm) | Cell death (40 μm) | Cell death (20 μm) | other results |
| --- | --- | --- | --- | --- |
| CCCCOc1ccc(S(=O)(=O)c2cnc3ccc(OC(F)(F)F)cc3c2N2CCS(=O)(=O)CC2)cc1 [Compound 198] | 0 | 30% | – | – |
| CCCCOc1ccc(S(=O)(=O)c2cnc3ccc(SC)cc3c2N2CCC(N3CCN(CCO)CC3)CC2)cc1 [Compound 230] | *** (more than 50% but less than 100% of endothelial cells vesicularize in cell shape) | – | – | cytotoxicity at 40 µM: 100% |
| CCc1ccc(S(=O)(=O)c2cnc3ccc(OC(F)(F)F)cc3c2Nc2ccncc2)cc1 [Compound 107] | – | – | 0% | 48 hrs (morphology observations) (20 μm): 0 |
| CCCCOc1ccc(S(=O)(=O)c2cnc3ccc(SC)cc3c2N2CCC3C(COCCN3CC(C)C)C2)cc1 (stereo not drawn) [Compound 352] | *** (more than 50% but less than 100% of endothelial cells vesicularize in cell shape) | – | – | cytotoxicity at 40 µM: 100% |
| CCCCCCCCCCCCCCCCOc1ccc(S(=O)(=O)c2cnc3ccc([S+](C)[O-])cc3c2N2CCC(N3CCC(N4CCCC(O)C4)CC3)CC2)cc1 (stereo not drawn) [Compound 378] | – | – | 30% | 48 hrs (morphology observations) (20 μm): *** (more than 50% but less than 100% of endothelial cells vesicularize in cell shape) |
| CCCCOc1ccc(S(=O)(=O)c2cnc3ccc(C(=O)OCC)cc3c2N2CC[S+]([O-])CC2)cc1 [Compound 195] | 0 | – | – | – |
| CCCCCCCCCCCCCCCCOc1ccc(S(=O)(=O)c2cnc3ccc([S+](C)[O-])cc3c2N2CCC(N3CCC(N4CCCCC4)CC3)CC2)cc1 (stereo not drawn) [Compound 377] | – | – | 10% | 48 hrs (morphology observations) (20 μm): 0 |
| CCCCOc1ccc(S(=O)(=O)c2cnc3ccc(SC)cc3c2N2CCCN(C3CCSCC3)CC2)cc1 [Compound 358] | 0 | – | – | cytotoxicity at 40 µM: 0% |
| CCCCCCCCCCOc1ccc(S(=O)(=O)c2cnc3ccc([S+](C)[O-])cc3c2N2CCC(N3CCC(N4CCN(CCO)CC4)CC3)CC2)cc1 (stereo not drawn) [Compound 292] | – | – | – | Cell death, read at 24 hrs (20 μm): 10%; Endothelial cell morphology score at 24 hrs (20 μm): * (50% or less of cells vesicularize in cell shape) |
| CCCCOc1ccc(S(=O)(=O)c2cnc3ccc([S+](C)[O-])cc3c2N2CCC(N3CCSCC3)CC2)cc1 (stereo not drawn) [Compound 245] | 0 | 40% | – | – |
| COc1ccc(S(=O)(=O)c2cnc3cc(OC)c(OC)cc3c2N2CCCN(C3COC3)CC2)cc1 [Compound 326] | 0 | 30% | – | – |
| CCCCCCCCCCOc1ccc(S(=O)(=O)c2cnc3ccc([S+](C)[O-])cc3c2N2CCC(N3CCCN(C)CC3)CC2)cc1 (stereo not drawn) [Compound 267] | – | – | – | 48 hrs (morphology observations) (10 μm): 0; Cell death (10 μm): 5% |
| CCCCCCCCCCCCCCOc1ccc(S(=O)(=O)c2cnc3ccc([S+](C)[O-])cc3c2N2CCC(N3CCN(CCO)CC3)CC2)cc1 (stereo not drawn) [Compound 339] | – | – | – | cytotoxicity at 20 µM: 50% |
| COc1ccc(S(=O)(=O)c2cnc3ccc(S(C)(=O)=O)cc3c2NN2CCN(C)CC2)cc1 [Compound 228] | 0 | 5% | – | – |
| CCOC(=O)c1ccc2ncc(S(=O)(=O)c3ccc(OC)cc3)c(NN3CCN(C)CC3)c2c1 [Compound 225] | 0 | 40% | – | – |
| COc1ccc(S(=O)(=O)c2cnc3ccc(OC(F)(F)F)cc3c2N2CCC(N3CCC(O)CC3)CC2)cc1 [Compound 113] | – | – | – | 48 hrs (morphology observations) (20 μm): 0; cytotoxicity at 20 µM: 10% |
| COc1ccc(S(=O)(=O)c2cnc3cc(OC)c(OC)cc3c2N2CCCN(C3CCSCC3)CC2)cc1 [Compound 329] | *** (more than 50% but less than 100% of endothelial cells vesicularize in cell shape) | 40% | – | – |
